# Literature values, collected in PubChem BioAssay AID1259409 (Chemical Carcinogenesis Research Information System (CCRIS), 2018).
# System: rodent chemically induced tumor inhibition, incidence and multiplicity
# Assay: CCRIS tumor inhibitor studies
# Details: Dose [Inhibitor]: 0, Route [Inhibitor]: ORAL, Species: RAT, Promoter: NONE USED
smiles,measurement,setting,value
O=c1oc2c(O)c(O)cc3c(=O)oc4c(O)c(O)cc1c4c23,"tumour outcome (control, treated, inhibition, significance)","Carcinogen: DIETHYLNITROSAMINE, 55-18-5, N-METHYLNITROSOUREA, 684-93-5, 1,2-DIMETHYLHYDRAZINE, 540-73-8, N-BUTYL-N-(4-HYDROXYB, Carcinogen: DIETHYLNITROSAMINE, 55-18-5, N-METHYLNITROSOUREA, 684-93-5, 1,2-DIMETHYLHYDRAZINE, 540-73-8, N-BUTYL-N-(4-HYDROXYB, 1% IN DIET FOR 4 WK BEGINNING 1 DAY PRIOR TO CARCINOGEN TREATMENT (STUDY DURATION: 36 WK), Strain/Sex: F344/MALE, Target Tissue: Type of Lesion: SMALL INTESTINE: CARCINOMA, Dose [Carcinogen]: 100 MG/KG DEN ONCE, 20 MG/KG MNU 4 TIMES, 40 MG/KG DMH 4 TIMES, 0.05% BBN IN DRINKING WATER FOR 2 WK, 0.1% DHPN IN D, Dose [Carcinogen]: 100 MG/KG DEN ONCE, 20 MG/KG MNU 4 TIMES, 40 MG/KG DMH 4 TIMES, 0.05% BBN IN DRINKING WATER FOR 2 WK, 0.1% DHPN IN D","5/14 (36%), 0/12 (0%), 100%, p<0.05"
same,"tumour outcome (control, treated, inhibition, significance)","Carcinogen: DIETHYLNITROSAMINE, 55-18-5, N-METHYLNITROSOUREA, 684-93-5, 1,2-DIMETHYLHYDRAZINE, 540-73-8, N-BUTYL-N-(4-HYDROXYB, Carcinogen: DIETHYLNITROSAMINE, 55-18-5, N-METHYLNITROSOUREA, 684-93-5, 1,2-DIMETHYLHYDRAZINE, 540-73-8, N-BUTYL-N-(4-HYDROXYB, 1% IN DIET FOR 4 WK BEGINNING 1 DAY PROIR TO CARCINOGEN TREATMENT (STUDY DURATION: 36 WK), Strain/Sex: F344/MALE, Target Tissue: Type of Lesion: LUNG: ADENOMA, Dose [Carcinogen]: 100 MG/KG DEN ONCE, 20 MG/KG MNU 4 TIMES, 40 MG/KG DMH 4 TIMES, 0.05% BBN IN DRINKING WATER FOR 2 WK, 0.1% DHPN IN D, Dose [Carcinogen]: 100 MG/KG DEN ONCE, 20 MG/KG MNU 4 TIMES, 40 MG/KG DMH 4 TIMES, 0.05% BBN IN DRINKING WATER FOR 2 WK, 0.1% DHPN IN D","6/14 (43%), 1/12 (8%), 81%, not significant"
same,"tumour outcome (control, treated, inhibition, significance)","Carcinogen: DIETHYLNITROSAMINE, 55-18-5, N-METHYLNITROSOUREA, 684-93-5, 1,2-DIMETHYLHYDRAZINE, 540-73-8, N-BUTYL-N-(4-HYDROXYB, Carcinogen: DIETHYLNITROSAMINE, 55-18-5, N-METHYLNITROSOUREA, 684-93-5, 1,2-DIMETHYLHYDRAZINE, 540-73-8, N-BUTYL-N-(4-HYDROXYB, 1% IN DIET FOR 32 WK BEGINNING POST CARCINOGEN TREATMENT (STUDY DURATION: 36 WK), Strain/Sex: F344/MALE, Target Tissue: Type of Lesion: KIDNEY: ADENOMA, Dose [Carcinogen]: 100 MG/KG DEN ONCE, 20 MG/KG MNU 4 TIMES, 40 MG/KG DMH 4 TIMES, 0.05% BBN IN DRINKING WATER FOR 2 WK, 0.1% DHPN IN D, Dose [Carcinogen]: 100 MG/KG DEN ONCE, 20 MG/KG MNU 4 TIMES, 40 MG/KG DMH 4 TIMES, 0.05% BBN IN DRINKING WATER FOR 2 WK, 0.1% DHPN IN D","4/14 (29%), 2/13 (15%), 48%, not significant"
same,"tumour outcome (control, treated, inhibition, significance)","Carcinogen: DIETHYLNITROSAMINE, 55-18-5, N-METHYLNITROSOUREA, 684-93-5, 1,2-DIMETHYLHYDRAZINE, 540-73-8, N-BUTYL-N-(4-HYDROXYB, Carcinogen: DIETHYLNITROSAMINE, 55-18-5, N-METHYLNITROSOUREA, 684-93-5, 1,2-DIMETHYLHYDRAZINE, 540-73-8, N-BUTYL-N-(4-HYDROXYB, 1% IN DIET FOR 32 WK BEGINNING POST CARCINOGEN TREATMENT (STUDY DURATION: 36 WK), Strain/Sex: F344/MALE, Target Tissue: Type of Lesion: KIDNEY: NEPHROBLASTOMA, Dose [Carcinogen]: 100 MG/KG DEN ONCE, 20 MG/KG MNU 4 TIMES, 40 MG/KG DMH 4 TIMES, 0.05% BBN IN DRINKING WATER FOR 2 WK, 0.1% DHPN IN D, Dose [Carcinogen]: 100 MG/KG DEN ONCE, 20 MG/KG MNU 4 TIMES, 40 MG/KG DMH 4 TIMES, 0.05% BBN IN DRINKING WATER FOR 2 WK, 0.1% DHPN IN D","7/14 (50%), 5/13 (38%), 24%, not significant"
same,"tumour outcome (control, treated, inhibition, significance)","Carcinogen: DIETHYLNITROSAMINE, 55-18-5, N-METHYLNITROSOUREA, 684-93-5, 1,2-DIMETHYLHYDRAZINE, 540-73-8, N-BUTYL-N-(4-HYDROXYB, Carcinogen: DIETHYLNITROSAMINE, 55-18-5, N-METHYLNITROSOUREA, 684-93-5, 1,2-DIMETHYLHYDRAZINE, 540-73-8, N-BUTYL-N-(4-HYDROXYB, 1% IN DIET FOR 32 WK BEGINNING POST CARCINOGEN TREATMENT (STUDY DURATION: 36 WK), Strain/Sex: F344/MALE, Target Tissue: Type of Lesion: LARGE INTESTINE: CARCINOMA, Dose [Carcinogen]: 100 MG/KG DEN ONCE, 20 MG/KG MNU 4 TIMES, 40 MG/KG DMH 4 TIMES, 0.05% BBN IN DRINKING WATER FOR 2 WK, 0.1% DHPN IN D, Dose [Carcinogen]: 100 MG/KG DEN ONCE, 20 MG/KG MNU 4 TIMES, 40 MG/KG DMH 4 TIMES, 0.05% BBN IN DRINKING WATER FOR 2 WK, 0.1% DHPN IN D","3/14 (21%), 6/12 (50%), -138%, not significant"
same,"tumour outcome (control, treated, inhibition, significance)","Carcinogen: DIETHYLNITROSAMINE, 55-18-5, N-METHYLNITROSOUREA, 684-93-5, 1,2-DIMETHYLHYDRAZINE, 540-73-8, N-BUTYL-N-(4-HYDROXYB, Carcinogen: DIETHYLNITROSAMINE, 55-18-5, N-METHYLNITROSOUREA, 684-93-5, 1,2-DIMETHYLHYDRAZINE, 540-73-8, N-BUTYL-N-(4-HYDROXYB, 1% IN DIET FOR 32 WK BEGINNING POST CARCINOGEN TREATMENT (STUDY DURATION: 36 WK), Strain/Sex: F344/MALE, Target Tissue: Type of Lesion: SMALL INTESTINE: ADENOMA, Dose [Carcinogen]: 100 MG/KG DEN ONCE, 20 MG/KG MNU 4 TIMES, 40 MG/KG DMH 4 TIMES, 0.05% BBN IN DRINKING WATER FOR 2 WK, 0.1% DHPN IN D, Dose [Carcinogen]: 100 MG/KG DEN ONCE, 20 MG/KG MNU 4 TIMES, 40 MG/KG DMH 4 TIMES, 0.05% BBN IN DRINKING WATER FOR 2 WK, 0.1% DHPN IN D","6/14 (43%), 0/12 (0%), 100%, < p<0.05"
same,"tumour outcome (control, treated, inhibition, significance)","Carcinogen: DIETHYLNITROSAMINE, 55-18-5, N-METHYLNITROSOUREA, 684-93-5, 1,2-DIMETHYLHYDRAZINE, 540-73-8, N-BUTYL-N-(4-HYDROXYB, Carcinogen: DIETHYLNITROSAMINE, 55-18-5, N-METHYLNITROSOUREA, 684-93-5, 1,2-DIMETHYLHYDRAZINE, 540-73-8, N-BUTYL-N-(4-HYDROXYB, 1% IN DIET FOR 32 WK BEGINNING POST CARCINOGEN TREATMENT (STUDY DURATION: 36 WK), Strain/Sex: F344/MALE, Target Tissue: Type of Lesion: SMALL INTESTINE: CARCINOMA, Dose [Carcinogen]: 100 MG/KG DEN ONCE, 20 MG/KG MNU 4 TIMES, 40 MG/KG DMH 4 TIMES, 0.05% BBN IN DRINKING WATER FOR 2 WK, 0.1% DHPN IN D, Dose [Carcinogen]: 100 MG/KG DEN ONCE, 20 MG/KG MNU 4 TIMES, 40 MG/KG DMH 4 TIMES, 0.05% BBN IN DRINKING WATER FOR 2 WK, 0.1% DHPN IN D","5/14 (36%), 1/12 (8%), 78%, not significant"
same,"tumour outcome (control, treated, inhibition, significance)","Carcinogen: DIETHYLNITROSAMINE, 55-18-5, N-METHYLNITROSOUREA, 684-93-5, 1,2-DIMETHYLHYDRAZINE, 540-73-8, N-BUTYL-N-(4-HYDROXYBU, Carcinogen: DIETHYLNITROSAMINE, 55-18-5, N-METHYLNITROSOUREA, 684-93-5, 1,2-DIMETHYLHYDRAZINE, 540-73-8, N-BUTYL-N-(4-HYDROXYBU, 1% IN DIET FOR 32 WK BEGINNING POST CARCINOGEN TREATMENT (STUDY DURATION: 36 WK), Strain/Sex: F344/MALE, Target Tissue: Type of Lesion: LARGE INTESTINE: ADENOMA, Dose [Carcinogen]: 100 MG/KG DEN ONCE, 20 MG/KG MNU 4 TIMES, 40 MG/KG DMH 4 TIMES, 0.05% BBN IN DRINKING WATER FOR 2 WK, 0.1% DHPN IN D, Dose [Carcinogen]: 100 MG/KG DEN ONCE, 20 MG/KG MNU 4 TIMES, 40 MG/KG DMH 4 TIMES, 0.05% BBN IN DRINKING WATER FOR 2 WK, 0.1% DHPN IN D","7/14 (50%), 3/12 (25%), 50%, not significant"
same,"tumour outcome (control, treated, inhibition, significance)","Carcinogen: DIETHYLNITROSAMINE, 55-18-5, N-METHYLNITROSOUREA, 684-93-5, 1,2-DIMETHYLHYDRAZINE, 540-73-8, N-BUTYL-N-(4-HYDROXYBU, Carcinogen: DIETHYLNITROSAMINE, 55-18-5, N-METHYLNITROSOUREA, 684-93-5, 1,2-DIMETHYLHYDRAZINE, 540-73-8, N-BUTYL-N-(4-HYDROXYBU, 1% IN DIET FOR 32 WK BEGINNING POST CARCINOGEN TREATMENT (STUDY DURATION: 36 WK), Strain/Sex: F344/MALE, Target Tissue: Type of Lesion: LUNG: ADENOMA, Dose [Carcinogen]: 100 MG/KG DEN ONCE, 20 MG/KG MNU 4 TIMES, 40 MG/KG DMH 4 TIMES, 0.05% BBN IN DRINKING WATER FOR 2 WK, 0.1% IN DRINKI, Dose [Carcinogen]: 100 MG/KG DEN ONCE, 20 MG/KG MNU 4 TIMES, 40 MG/KG DMH 4 TIMES, 0.05% BBN IN DRINKING WATER FOR 2 WK, 0.1% IN DRINKI","6/14 (43%), 1/13 (8%), 81%, p<0.05"
same,"tumour outcome (control, treated, inhibition, significance)","Carcinogen: N-NITROQUINOLINE-1-OXIDE, 56-57-5, 400 PPM IN DIET FOR 7 WK BEGINNING 1 WK PRIOR TO START OF CARCINOGEN TREATMENT (STUDY DURATION: 32 WK), Strain/Sex: F344\MALE, Target Tissue: Type of Lesion: TONGUE: CARCINOMA, Dose [Carcinogen]: 20 PPM IN DRINKING WATER FOR 5 WK","9/15 (60%), 0/15 (0%), 100%, p=0.00035"
same,outcome,"Carcinogen: N-NITROSOBENZYLMETHYLAMINE, 937-40-6, 0.4 G/KG IN DIET BEGINNING 2 WK PRIOR TO FIRST CARCINOGEN DOSE (STUDY DURATION: 20 WK), Strain/Sex: F-344/MALE, Target Tissue: Type of Lesion: ESOPHAGUS: TUMOR, Dose [Carcinogen]: 0.5, 1.25 MG/KG 1/WK FOR 18 WK","15/15 (100%), 14/15 (93%), 7%, not calculated (low dose carcinogen); 15/15 (100%"
same,"tumour outcome (control, treated, inhibition, significance)","Carcinogen: N-NITROSOBENZYLMETHYLAMINE, 937-40-6, 0.4 G/KG IN DIET BEGINNING 2 WK PRIOR TO FIRST CARCINOGEN DOSE (STUDY DURATION: 27 WK), Strain/Sex: F-344/MALE, Target Tissue: Type of Lesion: ESOPHAGUS: TUMOR, Dose [Carcinogen]: 0.5, 1.25 MG/KG 1/WK FOR 18 WK","15/15 (100%), 15/15 (100%), 0%, not calculated (low dose carcinogen); 15/15 (100"
